Assay results as given in patent US12209102B2, “Heterocyclic compounds and uses thereof” (Kumquat Biosciences Inc., priority 2022, dated 2025).

Experiments:
K-Ras G12D = target: T1, K-Ras G12D (Homo sapiens, UniProt P01116, G12D); assay: HTRF resonance energy transfer assay, K-Ras G12D / SOS1 interaction; assay type: biochemical; conditions: HTRF assay of Example 5; read-out: IC50 against K-Ras G12D
T1 construct: made in house; host or cells: E. coli BL21 (DE3)
How it was run: (§1)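 Read-out: HTRF 665/620 nm ratio (excitation 337 nm) after roughly 10 min or longer incubation, used to derive IC50. Donor anti-GST-Eu on GST-K-Ras; acceptor anti-6His-XL665 on His-hSOS1. Duplicate dose series from 10 μM down to 0.01 μM.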

K-Ras G12S = target: T2, K-Ras G12S (Homo sapiens, UniProt P01116, G12S); assay: HTRF resonance energy transfer assay, K-Ras G12S / SOS1 interaction; assay type: biochemical; conditions: HTRF assay of Example 5; read-out: IC50 against K-Ras G12S
T2 construct: made in house; host or cells: E. coli BL21 (DE3)
How it was run: as §1

K-Ras G12V = target: T3, K-Ras G12V (Homo sapiens, UniProt P01116, G12V); assay: HTRF resonance energy transfer assay, K-Ras G12V / SOS1 interaction; assay type: biochemical; conditions: HTRF assay of Example 5; read-out: IC50 against K-Ras G12V
T3 construct: made in house; host or cells: E. coli BL21 (DE3)
How it was run: as §1

K-Ras WT = target: T4, K-Ras WT (Homo sapiens, UniProt P01116); assay: HTRF resonance energy transfer assay, K-Ras WT / SOS1 interaction; assay type: biochemical; conditions: HTRF assay of Example 5; read-out: IC50 against K-Ras WT
T4 construct: made in house; host or cells: E. coli BL21 (DE3)
How it was run: as §1

GP2D cells = assay: Ras cellular assay, growth of cells with K-Ras G12D mutation (CellTiter-Glo); assay type: cell-based; conditions: cell growth, Example 9, G12D mutation, read-out: IC50 against GP2D cells
A549 cells = assay: Ras cellular assay, growth of cells with K-Ras G12S mutation (CellTiter-Glo); assay type: cell-based; conditions: Homo sapiens, cell growth, Example 9, G12S mutation, read-out: IC50 against A549 cells
How it was run: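 A549 cells (K-Ras G12S) in RPMI-1640 with 10% heat-inactivated FBS, seeded e.g. 800 per well in standard or ultra-low-attachment 384-well plates, treated next day with a dilution series (e.g. 10-point, 3-fold). Viability by CellTiter-Glo luminescence about 6 days later; IC50 from four-parameter fit.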

SW620 cells = assay: Ras cellular assay, growth of cells with K-Ras G12V mutation (CellTiter-Glo); assay type: cell-based; conditions: Homo sapiens, SW-620; cell growth, Example 9, G12V mutation; read-out: IC50 against SW620 cells
How it was run: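 SW620 (K-Ras G12V) cells, e.g. 800/well in RPMI-1640 with 10% heat-inactivated FBS on standard or ultra-low attachment plates, were dosed the day after plating with e.g. a 10-point 3-fold series. Viability by CellTiter-Glo luminescence about 6 days later; IC50 from four-parameter fit.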

T1 sequence (P01116 1-188 isoform P01116-2 G12D): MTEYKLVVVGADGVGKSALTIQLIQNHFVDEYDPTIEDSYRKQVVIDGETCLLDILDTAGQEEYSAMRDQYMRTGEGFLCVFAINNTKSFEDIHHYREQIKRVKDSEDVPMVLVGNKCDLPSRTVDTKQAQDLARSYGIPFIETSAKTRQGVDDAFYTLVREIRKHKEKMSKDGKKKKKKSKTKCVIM
T2 sequence (P01116 1-188 isoform P01116-2 G12S): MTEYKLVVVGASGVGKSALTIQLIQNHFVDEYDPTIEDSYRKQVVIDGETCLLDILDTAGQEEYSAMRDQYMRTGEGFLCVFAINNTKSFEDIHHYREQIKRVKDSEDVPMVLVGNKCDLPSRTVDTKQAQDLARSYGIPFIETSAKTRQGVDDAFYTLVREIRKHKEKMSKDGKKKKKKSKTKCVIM
T4 sequence (P01116 1-188 isoform P01116-2): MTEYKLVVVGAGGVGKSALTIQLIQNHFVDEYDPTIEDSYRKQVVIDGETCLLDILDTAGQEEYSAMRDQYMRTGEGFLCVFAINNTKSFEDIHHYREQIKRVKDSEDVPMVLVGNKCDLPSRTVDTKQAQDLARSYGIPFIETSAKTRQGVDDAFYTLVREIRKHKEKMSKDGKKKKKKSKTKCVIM
T3 sequence (P01116 1-188 isoform P01116-2 G12V): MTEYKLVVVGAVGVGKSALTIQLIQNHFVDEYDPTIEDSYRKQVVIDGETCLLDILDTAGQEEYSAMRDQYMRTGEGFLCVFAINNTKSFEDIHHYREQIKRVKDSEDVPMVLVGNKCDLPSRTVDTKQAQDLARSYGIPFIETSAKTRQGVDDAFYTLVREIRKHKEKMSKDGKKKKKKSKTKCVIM

IC50 (K-Ras G12D) [nM]	IC50 (K-Ras G12S) [nM]	IC50 (K-Ras G12V) [nM]	IC50 (K-Ras WT) [nM]	IC50 (A549 cells) [nM]	IC50 (SW620 cells) [nM]	Compound	IC50 (GP2D cells) [nM]
< 100	< 100	< 100	< 100	< 5000	< 5000	CC(C)(C#N)CN1CCOc2c(Cl)c(-c3ccc(F)c4sc(N)c(C#N)c34)c(F)c3nc(OC[C@@]45CCCN4C[C@H](F)C5)nc1c23 [Compound 1048, 2-amino-4-(8-chloro-4-(2-cyano-2-methylpropyl)-10-fluoro-2-(((2R,7aS)-2-fluorotetrahydro-1H-pyrrolizin-7a(5H)-yl)methoxy)-5,6-dihydro-4H-[1,4]oxazepino[5,6,7-de]quinazolin-9-yl)-7-fluorobenzo[b]thiophene-3-carbonitrile]	< 500
< 100	< 100	< 100	< 100	< 5000	< 5000	C#Cc1c(F)ccc2cc(O)cc(-c3nc4c5c(nc(OC[C@@]67CCCN6C[C@H](F)C7)nc5c3F)N(C3CCOC3)CCN4)c12 (stereo partly drawn) [Compound 771, 5-ethynyl-6-fluoro-4-(4-fluoro-2-(((2R,7aS)-2-fluorotetrahydro-1H-pyrrolizin-7a(5H)-yl)methoxy)-10-(tetrahydrofuran-3-yl)-7,8,9,10-tetrahydro-1,3,6,7,10-pentaazacyclohepta[de]naphthalen-5-yl)naphthalen-2-ol]	< 500
< 100	< 100	< 100	< 100	< 5000	< 5000	CC(F)(F)CN1CCOc2c(Cl)c(-c3ccc(F)c4sc(N)c(C#N)c34)c(F)c3nc(OC[C@@]45CCCN4C[C@H](F)C5)nc1c23 [Compound 1108, 2-amino-4-(8-chloro-4-(2,2-difluoropropyl)-10-fluoro-2-(((2R,7aS)-2-fluorotetrahydro-1H-pyrrolizin-7a(5H)-yl)methoxy)-5,6-dihydro-4H-[1,4]oxazepino[5,6,7-de]quinazolin-9-yl)-7-fluorobenzo[b]thiophene-3-carbonitrile]	< 500
< 100	< 100	< 100	< 100	< 5000	< 5000	COCC(=O)N1CCC(N2CCOc3c(Cl)c(-c4ccc(F)c5sc(N)c(C#N)c45)c(F)c4nc(OC[C@@]56CCCN5C[C@H](F)C6)nc2c34)C1 (stereo partly drawn) [Compound 1134, 2-amino-4-(8-chloro-10-fluoro-2-(((2R,7aS)-2-fluorotetrahydro-1H-pyrrolizin-7a(5H)-yl)methoxy)-4-(1-(2-methoxyacetyl)pyrrolidin-3-yl)-5,6-dihydro-4H-[1,4]oxazepino[5,6,7-de]quinazolin-9-yl)-7-fluorobenzo[b]thiophene-3-carbonitrile]	< 500
< 100	< 100	< 100	< 100	< 5000	< 5000	N#Cc1c(N)sc2c(F)ccc(-c3c(Cl)c4c5c(nc(OC[C@@]67CCCN6C[C@H](F)C7)nc5c3F)N(C3CCN(C(=O)C5CCO5)C3)CCO4)c12 (stereo partly drawn) [Compound 1064, 2-amino-4-(8-chloro-10-fluoro-2-(((2R,7aS)-2-fluorotetrahydro-1H-pyrrolizin-7a(5H)-yl)methoxy)-4-(1-(oxetane-2-carbonyl)pyrrolidin-3-yl)-5,6-dihydro-4H-[1,4]oxazepino[5,6,7-de]quinazolin-9-yl)-7-fluorobenzo[b]thiophene-3-carbonitrile]	< 500
< 100	< 100	< 100	< 100	< 5000	< 5000	N#Cc1c(N)sc2c(F)ccc(-c3c(Cl)c4c5c(nc(OC[C@@]67CCCN6C[C@H](F)C7)nc5c3F)N(CCC(F)F)CCO4)c12 [Compound 807, 2-amino-4-(8-chloro-4-(3,3-difluoropropyl)-10-fluoro-2-(((2R,7aS)-2-fluorotetrahydro-1H-pyrrolizin-7a(5H)-yl)methoxy)-5,6-dihydro-4H-[1,4]oxazepino[5,6,7-de]quinazolin-9-yl)-7-fluorobenzo[b]thiophene-3-carbonitrile]	< 500
< 100	< 100	< 100	< 100	< 5000	< 5000	N#Cc1c(N)sc2c(F)ccc(-c3c(Cl)c4c5c(nc(OC[C@@]67CCCN6C[C@H](F)C7)nc5c3F)N(C3CC(NC(=O)C(F)F)C3)CCO4)c12 (stereo partly drawn) [Compound 612, N-(3-(9-(2-amino-3-cyano-7-fluorobenzo[b]thiophen-4-yl)-8-chloro-10-fluoro-2-(((2R,7aS)-2-fluorotetrahydro-1H-pyrrolizin-7a(5H)-yl)methoxy)-5,6-dihydro-4H-[1,4]oxazepino[5,6,7-de]quinazolin-4-yl)cyclobutyl)-2,2-difluoroacetamide]	< 500
< 100	< 100	< 100	< 100	< 5000	< 5000	N#CCC1COc2c(Cl)c(-c3ccc(F)c4sc(N)c(C#N)c34)c(F)c3nc(OC[C@@]45CCCN4C[C@H](F)C5)nc(c23)N1CC(F)F (stereo partly drawn) [Compound 700, 2-amino-4-(8-chloro-5-(cyanomethyl)-4-(2,2-difluoroethyl)-10-fluoro-2-(((2R,7aS)-2-fluorotetrahydro-1H-pyrrolizin-7a(5H)-yl)methoxy)-5,6-dihydro-4H-[1,4]oxazepino[5,6,7-de]quinazolin-9-yl)-7-fluorobenzo[b]thiophene-3-carbonitrile]	< 500
< 100	< 100	< 100	< 100	< 5000	< 5000	N#Cc1c(N)sc2c(F)ccc(-c3c(Cl)c4c5c(nc(OC[C@@]67CCCN6C[C@H](F)C7)nc5c3F)N(C35COC(CF)(C3)C5)CCO4)c12 [Compound 972, 2-amino-4-(8-chloro-10-fluoro-4-(1-(fluoromethyl)-2-oxabicyclo[2.1.1]hexan-4-yl)-2-(((2R,7aS)-2-fluorotetrahydro-1H-pyrrolizin-7a(5H)-yl)methoxy)-5,6-dihydro-4H-[1,4]oxazepino[5,6,7-de]quinazolin-9-yl)-7-fluorobenzo[b]thiophene-3-carbonitrile]	< 500
< 100	< 100	< 100	< 100	< 5000	< 5000	N#Cc1c(N)sc2c(F)ccc(-c3c(Cl)c4c5c(nc(OC[C@@]67CCCN6C[C@H](F)C7)nc5c3F)N([C@@H]3CCN(C=O)C3)CCO4)c12 [Compound 716, 2-amino-4-(8-chloro-10-fluoro-2-(((2R,7aS)-2-fluorotetrahydro-1H-pyrrolizin-7a(5H)-yl)methoxy)-4-((R)-1-formylpyrrolidin-3-yl)-5,6-dihydro-4H-[1,4]oxazepino[5,6,7-de]quinazolin-9-yl)-7-fluorobenzo[b]thiophene-3-carbonitrile]	< 500
< 100	< 100	< 100	< 100	< 5000	< 5000	N#Cc1c(N)sc2c(F)ccc(-c3c(Cl)c4c5c(nc(OC[C@@]67CCCN6C[C@H](F)C7)nc5c3F)N(C3CCN(C(=O)C(F)F)C3)CCO4)c12 (stereo partly drawn) [Compound 649, 2-amino-4-(8-chloro-4-(1-(2,2-difluoroacetyl)pyrrolidin-3-yl)-10-fluoro-2-(((2R,7aS)-2-fluorotetrahydro-1H-pyrrolizin-7a(5H)-yl)methoxy)-5,6-dihydro-4H-[1,4]oxazepino[5,6,7-de]quinazolin-9-yl)-7-fluorobenzo[b]thiophene-3-carbonitrile]	< 500

Compound	IC50 (K-Ras G12D) [nM]	IC50 (K-Ras G12S) [nM]	IC50 (K-Ras G12V) [nM]	IC50 (K-Ras WT) [nM]	IC50 (A549 cells) [nM]	IC50 (SW620 cells) [nM]	IC50 (GP2D cells) [nM]
N#Cc1c(N)sc2c(F)ccc(-c3c(Cl)c4c5c(nc(OC[C@@]67CCCN6C[C@H](F)C7)nc5c3F)N(C3CC5CCC3N5C=O)CCO4)c12 (stereo partly drawn) [Compound 892, 2-amino-4-(8-chloro-10-fluoro-2-(((2R,7aS)-2-fluorotetrahydro-1H-pyrrolizin-7a(5H)-yl)methoxy)-4-(7-formyl-7-azabicyclo[2.2.1]heptan-2-yl)-5,6-dihydro-4H-[1,4]oxazepino[5,6,7-de]quinazolin-9-yl)-7-fluorobenzo[b]thiophene-3-carbonitrile]	< 100	< 100	< 100	< 100	< 5000	< 5000	< 500
